Source: ChEMBL document CHEMBL1201862, “PubChem BioAssay data set” (2004)
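Values below derive from 48-hour exposures of cells grown in 96-well plates, with endpoints linearly interpolated between the two concentrations bracketing the appropriate inhibition level. Here, GI50 denotes the concentration required for 50% inhibition of growth.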 The source made the active and inactive calls. Cut-off read from the data, not from the text of the source: active = GI50 up to about 1.1 µM and inactive = higher.

Experiments:
Experiment in all cases: NCI-60 cell line screen, 48 h
EKVX = tested on: EKVX
SK-MEL-2 = tested on: SK-MEL-2
HOP-18 = tested on: HOP-18
Malme-3M = tested on: Malme-3M
RXF 393 = tested on: RXF 393
NCI-H522 = tested on: NCI-H522
DLD-1 = tested on: DLD-1
HCC 2998 = tested on: HCC 2998
786-0 = tested on: 786-0
A498 = tested on: A498
CAKI-1 = tested on: CAKI-1
HOP-62 = tested on: HOP-62
RPMI-8226 = tested on: RPMI-8226
IGROV-1 = tested on: IGROV-1
ACHN = tested on: ACHN
LOX IMVI = tested on: LOX IMVI
K562 = tested on: K562
OVCAR-4 = tested on: OVCAR-4
UO-31 = tested on: UO-31
SK-MEL-28 = tested on: SK-MEL-28
OVCAR-3 = tested on: OVCAR-3
SR = tested on: SR
COLO 205 = tested on: COLO 205
SF-295 = tested on: SF-295
SK-OV-3 = tested on: SK-OV-3
LXFL 529 = tested on: LXFL 529
XF498 = tested on: XF498
KM-20L2 = tested on: KM-20L2
SNB-78 = tested on: SNB-78
SF-539 = tested on: SF-539
HOP-92 = tested on: HOP-92
M19-MEL = tested on: M19-MEL
OVCAR-8 = tested on: OVCAR-8
HT-29 = tested on: HT-29
HL-60 = tested on: HL-60
OVCAR-5 = tested on: OVCAR-5
TK-10 = tested on: TK-10
SNB-75 = tested on: SNB-75
NCI-H460 = tested on: NCI-H460
SK-MEL-5 = tested on: SK-MEL-5
SNB-19 = tested on: SNB-19
HCT-15 = tested on: HCT-15
HCT-116 = tested on: HCT-116
M14 = tested on: M14
DMS-273 = tested on: DMS-273
NCI-H226 = tested on: NCI-H226
NCI-H23 = tested on: NCI-H23
UACC-257 = tested on: UACC-257
MOLT-4 = tested on: MOLT-4
UACC-62 = tested on: UACC-62
A549 = tested on: A549
DMS-114 = tested on: DMS-114
SF-268 = tested on: SF-268
KM12 = tested on: KM12
U-251 = tested on: U-251
SN12C = tested on: SN12C
SW-620 = tested on: SW-620
CCRF-CEM = tested on: CCRF-CEM

COc1ccc(-c2cnoc2-c2ccc(OC)c(OC)c2)cc1OC
GI50 (EKVX): 1.31 µM (inactive) | GI50 (SK-MEL-2): 1.08 µM (active) | GI50 (HOP-18): 6.14 µM (inactive) | GI50 (Malme-3M): 2.15 µM (inactive) | GI50 (RXF 393): 1.23 µM (inactive) | GI50 (NCI-H522): 556 nM (active) | GI50 (DLD-1): 2.12 µM (inactive) | GI50 (HCC 2998): 1.05 µM (active) | GI50 (786-0): 1.64 µM (inactive) | GI50 (A498): 1.6 µM (inactive) | GI50 (CAKI-1): 2.35 µM (inactive) | GI50 (HOP-62): 1.1 µM (active) | GI50 (RPMI-8226): 1.54 µM (inactive) | GI50 (IGROV-1): 1.29 µM (inactive) | GI50 (ACHN): 4.68 µM (inactive) | GI50 (LOX IMVI): 1.42 µM (inactive) | GI50 (K562): 445 nM (active) | GI50 (OVCAR-4): 18.9 µM (inactive) | GI50 (UO-31): 4.46 µM (inactive) | GI50 (SK-MEL-28): 1.62 µM (inactive) | GI50 (OVCAR-3): 1.31 µM (inactive) | GI50 (SR): 318 nM (active) | GI50 (COLO 205): 1.18 µM (inactive) | GI50 (SF-295): 883 nM (active) | GI50 (SK-OV-3): 1.47 µM (inactive) | GI50 (LXFL 529): 1.83 µM (inactive) | GI50 (XF498): 1.75 µM (inactive) | GI50 (KM-20L2): 4.66 µM (inactive) | GI50 (SNB-78): 7.62 µM (inactive) | GI50 (SF-539): 1.2 µM (inactive) | GI50 (HOP-92): 2.67 µM (inactive) | GI50 (M19-MEL): 891 nM (active) | GI50 (OVCAR-8): 3.1 µM (inactive) | GI50 (HT-29): 1.27 µM (inactive) | GI50 (HL-60): 313 nM (active) | GI50 (OVCAR-5): 3.72 µM (inactive) | GI50 (TK-10): 3.85 µM (inactive) | GI50 (SNB-75): 1.78 µM (inactive) | GI50 (NCI-H460): 2.48 µM (inactive) | GI50 (SK-MEL-5): 908 nM (active) | GI50 (SNB-19): 4.15 µM (inactive) | GI50 (HCT-15): 400 nM | GI50 (HCT-116): 1.26 µM (inactive) | GI50 (M14): 851 nM (active) | GI50 (DMS-273): 314 nM (active) | GI50 (NCI-H226): 1.71 µM (inactive) | GI50 (NCI-H23): 1.24 µM (inactive) | GI50 (UACC-257): 5.53 µM (inactive) | GI50 (MOLT-4): 893 nM (active) | GI50 (UACC-62): 406 nM (active) | GI50 (A549): 3.02 µM (inactive) | GI50 (DMS-114): 441 nM (active) | GI50 (SF-268): 2.32 µM (inactive) | GI50 (KM12): 746 nM (active) | GI50 (U-251): 2.34 µM (inactive) | GI50 (SN12C): 3.04 µM (inactive) | GI50 (SW-620): 414 nM (active) | GI50 (CCRF-CEM): 1.73 µM (inactive)
